Inhibition data for 15 compounds are collected here from ChEMBL document CHEMBL1914443, “Inhibition of c-Kit, VEGFR-2 (KDR), and ABCG2 by analogues of OSI-930” (Bioorg Med Chem Lett, 2011).

Test [1] deals with T1, Mast/stem cell growth factor receptor Kit (Homo sapiens, UniProt P10721). The test is described as follows: Inhibition of c-Kit using Tyr 06 peptide as substrate at 10 uM after 60 mins by Z'-LYTE assay.
In test [2] the target is Platelet-derived growth factor receptor alpha (Homo sapiens) (UniProt P16234). The test is described as follows: Inhibition of PDGFRalpha using Tyr 04 peptide as substrate at 10 uM after 60 mins by Z'-LYTE assay.
In test [3] the target is Platelet-derived growth factor receptor beta (Homo sapiens) (UniProt P09619). Nature of the test: Inhibition of PDGFRbeta using Tyr 04 peptide as substrate at 10 uM after 60 mins by Z'-LYTE assay.
In test [4] the target is Receptor-type tyrosine-protein kinase FLT3 (Homo sapiens) (UniProt P36888). Nature of the test: Inhibition of Flt3 using Tyr 02 peptide as substrate at 10 uM after 60 mins by Z'-LYTE assay.
The target of test [5] is T2, Vascular endothelial growth factor receptor 2 (Homo sapiens, UniProt P35968). Nature of the test: Inhibition of KDR using Tyr 01 peptide as substrate at 10 uM after 60 mins by Z'-LYTE assay.
Test [6] deals with Vascular endothelial growth factor receptor 1 (Homo sapiens) (UniProt P17948). The test is described as follows: Inhibition of VEGFR1 using Tyr 04 peptide as substrate at 10 uM after 60 mins by Z'-LYTE assay.
Test [7] concerns the target Vascular endothelial growth factor receptor 3 (Homo sapiens) (UniProt P35916). Nature of the test: Inhibition of VEGFR3 using Tyr 04 peptide as substrate at 10 uM after 60 mins by Z'-LYTE assay.
For test [8], the target named is Angiopoietin-1 receptor (Homo sapiens) (UniProt Q02763). The test is described as follows: Inhibition of Tie-2 using Tyr 05 peptide as substrate at 10 uM after 60 mins by Z'-LYTE assay.
Test [9] deals with Platelet-derived growth factor receptor alpha (Homo sapiens) (UniProt P16234). The test is described as follows: Inhibition of PDGFRalpha using Tyr 04 peptide as substrate at 1 uM after 60 mins by Z'-LYTE assay.
The target of test [10] is T1, Mast/stem cell growth factor receptor Kit. The test is described as follows: Inhibition of c-Kit using Tyr 06 peptide as substrate at 1 uM after 60 mins by Z'-LYTE assay.
The target in test [11] is Platelet-derived growth factor receptor beta (Homo sapiens) (UniProt P09619). The test is described as follows: Inhibition of PDGFRbeta using Tyr 04 peptide as substrate at 1 uM after 60 mins by Z'-LYTE assay.
Test [12] has as its target Receptor-type tyrosine-protein kinase FLT3 (Homo sapiens) (UniProt P36888). Nature of the test: Inhibition of Flt3 using Tyr 02 peptide as substrate at 1 uM after 60 mins by Z'-LYTE assay.
Test [13] addresses T2, Vascular endothelial growth factor receptor 2. The test is described as follows: Inhibition of KDR using Tyr 01 peptide as substrate at 1 uM after 60 mins by Z'-LYTE assay.
The target in test [14] is Vascular endothelial growth factor receptor 1 (Homo sapiens) (UniProt P17948). The test is described as follows: Inhibition of VEGFR1 using Tyr 04 peptide as substrate at 1 uM after 60 mins by Z'-LYTE assay.
In test [15] the target is Vascular endothelial growth factor receptor 3 (Homo sapiens) (UniProt P35916). The test is described as follows: Inhibition of VEGFR3 using Tyr 04 peptide as substrate at 1 uM after 60 mins by Z'-LYTE assay.
Test [16] has as its target Angiopoietin-1 receptor (Homo sapiens) (UniProt Q02763). The test is described as follows: Inhibition of Tie-2 using Tyr 05 peptide as substrate at 1 uM after 60 mins by Z'-LYTE assay.

What is called inhibition is the drop in the measured response relative to a control, in per cent.

Sequence of Vascular endothelial growth factor receptor 1 (Homo sapiens) (P17948 whole entry): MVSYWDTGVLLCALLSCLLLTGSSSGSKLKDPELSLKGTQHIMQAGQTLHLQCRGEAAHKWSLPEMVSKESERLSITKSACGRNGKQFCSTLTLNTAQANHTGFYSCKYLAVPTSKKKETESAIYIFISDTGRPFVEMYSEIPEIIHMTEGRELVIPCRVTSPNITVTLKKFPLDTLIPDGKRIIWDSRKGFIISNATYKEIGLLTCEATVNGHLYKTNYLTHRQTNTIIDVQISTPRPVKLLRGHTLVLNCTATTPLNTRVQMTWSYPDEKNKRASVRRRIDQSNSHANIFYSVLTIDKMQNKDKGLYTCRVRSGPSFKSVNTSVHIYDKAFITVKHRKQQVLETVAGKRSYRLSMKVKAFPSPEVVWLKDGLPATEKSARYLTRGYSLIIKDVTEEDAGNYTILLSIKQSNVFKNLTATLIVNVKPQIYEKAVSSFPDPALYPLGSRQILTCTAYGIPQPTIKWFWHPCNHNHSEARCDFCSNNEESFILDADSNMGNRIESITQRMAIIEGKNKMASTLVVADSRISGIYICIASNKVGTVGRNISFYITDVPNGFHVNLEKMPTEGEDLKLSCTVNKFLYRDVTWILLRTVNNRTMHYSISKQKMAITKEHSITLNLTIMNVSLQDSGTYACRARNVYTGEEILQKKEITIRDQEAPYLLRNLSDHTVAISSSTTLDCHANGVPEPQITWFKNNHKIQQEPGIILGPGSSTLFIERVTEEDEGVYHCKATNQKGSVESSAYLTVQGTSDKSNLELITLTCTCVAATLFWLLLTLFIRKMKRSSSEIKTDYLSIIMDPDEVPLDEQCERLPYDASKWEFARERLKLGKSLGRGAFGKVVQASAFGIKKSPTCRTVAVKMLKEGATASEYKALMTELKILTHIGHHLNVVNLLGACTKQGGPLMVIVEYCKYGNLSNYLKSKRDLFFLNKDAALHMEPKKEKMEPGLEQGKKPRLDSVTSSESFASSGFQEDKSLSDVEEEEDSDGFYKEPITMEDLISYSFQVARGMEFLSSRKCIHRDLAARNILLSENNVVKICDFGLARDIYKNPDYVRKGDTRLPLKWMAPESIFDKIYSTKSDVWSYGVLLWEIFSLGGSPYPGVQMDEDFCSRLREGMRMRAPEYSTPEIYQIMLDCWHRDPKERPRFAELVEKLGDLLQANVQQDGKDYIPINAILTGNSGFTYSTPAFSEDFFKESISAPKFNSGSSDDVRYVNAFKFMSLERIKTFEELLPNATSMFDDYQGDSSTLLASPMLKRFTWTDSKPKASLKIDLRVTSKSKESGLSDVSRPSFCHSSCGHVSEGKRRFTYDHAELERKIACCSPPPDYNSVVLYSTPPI
Sequence of Platelet-derived growth factor receptor beta (Homo sapiens) (P09619 whole entry): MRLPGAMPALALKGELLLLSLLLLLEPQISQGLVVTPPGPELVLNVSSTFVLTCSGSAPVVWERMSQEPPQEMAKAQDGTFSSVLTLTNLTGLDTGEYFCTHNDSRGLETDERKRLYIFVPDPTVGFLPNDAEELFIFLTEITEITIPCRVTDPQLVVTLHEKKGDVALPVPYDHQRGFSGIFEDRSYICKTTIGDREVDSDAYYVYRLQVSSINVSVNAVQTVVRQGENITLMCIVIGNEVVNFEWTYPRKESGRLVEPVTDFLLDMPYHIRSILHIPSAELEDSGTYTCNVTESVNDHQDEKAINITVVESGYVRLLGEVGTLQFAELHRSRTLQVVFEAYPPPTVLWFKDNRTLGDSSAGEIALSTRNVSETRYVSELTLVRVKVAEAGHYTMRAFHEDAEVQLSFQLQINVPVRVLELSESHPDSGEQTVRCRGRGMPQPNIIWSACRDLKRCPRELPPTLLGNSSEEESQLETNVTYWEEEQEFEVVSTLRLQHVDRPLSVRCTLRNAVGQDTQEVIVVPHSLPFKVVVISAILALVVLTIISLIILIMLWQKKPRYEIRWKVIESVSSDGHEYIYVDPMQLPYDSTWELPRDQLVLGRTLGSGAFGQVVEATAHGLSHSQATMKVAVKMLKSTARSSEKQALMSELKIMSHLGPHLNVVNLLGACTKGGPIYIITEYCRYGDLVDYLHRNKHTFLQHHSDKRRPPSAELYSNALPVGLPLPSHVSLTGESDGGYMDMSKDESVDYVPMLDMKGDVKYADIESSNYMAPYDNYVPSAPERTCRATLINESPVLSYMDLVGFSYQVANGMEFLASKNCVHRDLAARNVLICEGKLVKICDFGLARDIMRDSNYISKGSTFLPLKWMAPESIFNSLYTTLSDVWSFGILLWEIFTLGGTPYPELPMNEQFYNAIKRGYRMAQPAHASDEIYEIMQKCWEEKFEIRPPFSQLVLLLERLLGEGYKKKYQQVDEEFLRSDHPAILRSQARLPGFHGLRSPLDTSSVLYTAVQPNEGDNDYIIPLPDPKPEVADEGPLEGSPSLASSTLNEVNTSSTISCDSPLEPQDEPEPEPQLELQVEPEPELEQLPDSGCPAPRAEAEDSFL
Sequence of Platelet-derived growth factor receptor alpha (Homo sapiens) (P16234 whole entry): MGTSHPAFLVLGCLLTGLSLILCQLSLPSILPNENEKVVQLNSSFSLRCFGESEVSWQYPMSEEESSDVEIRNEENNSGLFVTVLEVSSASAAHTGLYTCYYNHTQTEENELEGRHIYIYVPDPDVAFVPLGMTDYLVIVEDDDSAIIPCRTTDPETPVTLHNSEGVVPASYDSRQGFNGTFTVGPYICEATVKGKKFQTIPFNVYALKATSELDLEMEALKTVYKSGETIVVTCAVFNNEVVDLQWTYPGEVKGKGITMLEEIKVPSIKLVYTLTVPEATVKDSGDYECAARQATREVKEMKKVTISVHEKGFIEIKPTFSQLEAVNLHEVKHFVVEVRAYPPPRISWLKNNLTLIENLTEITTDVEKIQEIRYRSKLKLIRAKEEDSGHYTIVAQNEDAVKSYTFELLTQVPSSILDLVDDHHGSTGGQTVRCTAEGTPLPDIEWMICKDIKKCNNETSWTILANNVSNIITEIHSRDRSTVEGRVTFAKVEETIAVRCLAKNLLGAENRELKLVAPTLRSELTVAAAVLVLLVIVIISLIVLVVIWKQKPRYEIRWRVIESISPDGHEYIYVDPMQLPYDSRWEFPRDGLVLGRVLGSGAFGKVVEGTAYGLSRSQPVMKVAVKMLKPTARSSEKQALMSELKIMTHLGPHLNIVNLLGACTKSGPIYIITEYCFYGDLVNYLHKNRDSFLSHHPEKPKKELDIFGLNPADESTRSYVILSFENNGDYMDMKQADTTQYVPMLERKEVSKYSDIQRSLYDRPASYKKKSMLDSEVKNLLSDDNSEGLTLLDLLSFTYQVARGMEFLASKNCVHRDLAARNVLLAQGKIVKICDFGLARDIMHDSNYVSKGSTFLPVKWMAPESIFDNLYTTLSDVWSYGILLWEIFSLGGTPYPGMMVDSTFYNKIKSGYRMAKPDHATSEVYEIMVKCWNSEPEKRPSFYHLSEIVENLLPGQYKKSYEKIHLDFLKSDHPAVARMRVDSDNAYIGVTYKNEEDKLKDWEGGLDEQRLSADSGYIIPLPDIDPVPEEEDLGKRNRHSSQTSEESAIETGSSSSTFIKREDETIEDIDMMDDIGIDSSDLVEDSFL
Sequence of Vascular endothelial growth factor receptor 3 (Homo sapiens) (P35916 whole entry): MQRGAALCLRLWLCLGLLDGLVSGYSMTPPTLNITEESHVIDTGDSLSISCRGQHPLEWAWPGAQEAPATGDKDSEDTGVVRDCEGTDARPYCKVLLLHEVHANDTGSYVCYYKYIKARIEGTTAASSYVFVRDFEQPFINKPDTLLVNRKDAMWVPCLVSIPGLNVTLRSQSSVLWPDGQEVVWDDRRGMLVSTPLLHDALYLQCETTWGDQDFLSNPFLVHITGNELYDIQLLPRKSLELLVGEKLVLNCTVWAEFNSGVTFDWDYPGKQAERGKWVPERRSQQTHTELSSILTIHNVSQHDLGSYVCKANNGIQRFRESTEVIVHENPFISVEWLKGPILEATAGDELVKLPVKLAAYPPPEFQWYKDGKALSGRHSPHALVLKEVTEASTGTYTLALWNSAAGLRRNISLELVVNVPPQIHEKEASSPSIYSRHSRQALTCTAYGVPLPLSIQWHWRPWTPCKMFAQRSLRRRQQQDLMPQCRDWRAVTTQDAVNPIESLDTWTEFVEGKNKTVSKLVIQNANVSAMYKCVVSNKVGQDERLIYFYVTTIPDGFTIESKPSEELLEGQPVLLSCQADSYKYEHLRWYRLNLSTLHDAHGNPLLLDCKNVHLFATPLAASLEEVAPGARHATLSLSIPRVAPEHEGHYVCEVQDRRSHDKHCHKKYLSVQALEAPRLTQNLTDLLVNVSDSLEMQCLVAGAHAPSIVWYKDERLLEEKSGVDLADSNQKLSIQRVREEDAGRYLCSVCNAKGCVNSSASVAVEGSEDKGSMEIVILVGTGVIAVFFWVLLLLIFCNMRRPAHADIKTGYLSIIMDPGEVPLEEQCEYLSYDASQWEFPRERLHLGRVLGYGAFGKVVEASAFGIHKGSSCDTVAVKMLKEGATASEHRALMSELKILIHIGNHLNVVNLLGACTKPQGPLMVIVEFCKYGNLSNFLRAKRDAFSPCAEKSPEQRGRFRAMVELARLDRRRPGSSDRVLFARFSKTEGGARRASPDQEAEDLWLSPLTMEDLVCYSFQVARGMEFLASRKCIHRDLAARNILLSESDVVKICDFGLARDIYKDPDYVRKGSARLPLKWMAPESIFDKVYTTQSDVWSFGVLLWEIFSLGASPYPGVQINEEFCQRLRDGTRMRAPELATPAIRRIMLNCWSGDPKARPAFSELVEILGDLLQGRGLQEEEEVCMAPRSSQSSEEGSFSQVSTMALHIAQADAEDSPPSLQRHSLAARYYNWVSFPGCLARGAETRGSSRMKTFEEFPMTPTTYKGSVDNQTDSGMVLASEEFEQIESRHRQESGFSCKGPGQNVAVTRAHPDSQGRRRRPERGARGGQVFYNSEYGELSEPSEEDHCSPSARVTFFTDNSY

For the compound `Nc1ccccc1CNc1ccsc1C(=O)Nc1ccc(OC(F)(F)F)cc1`, the inhibition in test [1], in test [2], in test [3], in test [4], in test [5] and in [6] was under 40% throughout. In addition, the inhibition in test [7], in test [8], in test [9], in test [10], in test [11] and in test [12] was under 40% throughout. For the same compound, the inhibition in test [13], in [14], in test [15] and in test [16] was under 40% in each case.

`O=C(CBr)Nc1cccc(CN2C(=O)CN(c3ccc(OC(F)(F)F)cc3)C(=O)c3sccc32)c1`: the inhibition is 41% in test [1], under 40% in test [5], under 40% in test [10] and under 40% in test [13].

As for `O=C(Nc1ccc(OC(F)(F)F)cc1)c1sccc1NCc1ccncc1[N+](=O)[O-]`, the inhibition in [1] was 80%; in test [5] it was under 40%; in [10], under 40%; in [13], under 40%.

Take `CC(=O)Nc1cccc(CNc2ccsc2C(=O)Nc2ccc(OC(F)(F)F)cc2)c1`: the inhibition is 58% in test [1], under 40% in test [5], under 40% in test [10] and under 40% in test [13].

In the case of `O=C(Nc1ccc(OC(F)(F)F)cc1)c1sccc1NCc1ccc([N+](=O)[O-])cc1`, the inhibition in test [1], in test [2], in test [3], in test [4], in test [5] and in test [6] was under 40% throughout. Also, the inhibition in test [7], in [8], in test [9], in [10], in test [11] and in [12] was under 40% each time. Also, the inhibition in test [13], in test [14], in test [15] and in test [16] was under 40% throughout.

For `Nc1ccc(CNc2ccsc2C(=O)Nc2ccc(OC(F)(F)F)cc2)cc1`, the inhibition in test [1], in [2], in [3], in test [4], in test [5] and in test [6] was under 40% in each case. Further, the inhibition in test [7], in test [8], in test [9], in test [10], in [11] and in [12] was under 40% each time. The inhibition in test [13], in [14], in test [15] and in test [16] was under 40% each time.

For the compound `CC(=O)Nc1ccccc1CNc1ccsc1C(=O)Nc1ccc(OC(F)(F)F)cc1`, the inhibition in [1], in test [2], in [3], in test [4], in [5] and in test [6] was under 40% in each case. The inhibition in test [7], in [8], in test [9], in test [10], in test [11] and in test [12] was under 40% throughout. For the same compound, the inhibition in test [13], in test [14], in test [15] and in test [16] was under 40% each time.

On to `O=C(Nc1ccc(OC(F)(F)F)cc1)c1sccc1NCc1ccc(O)cc1`, for which the inhibition was 68% in test [1]; 44% in [3]; 54% in test [5]; under 40% in test [10]; under 40% in test [13].

As to `O=C(Nc1ccc(OC(F)(F)F)cc1)c1sccc1NCc1cccc([N+](=O)[O-])c1`, the inhibition in test [1], in [2], in test [3], in test [4], in test [5] and in test [6] was under 40% each time. For the same compound, the inhibition in test [7], in test [8], in [9], in [10], in [11] and in [12] was under 40% each time. For the same compound, the inhibition in test [13], in test [14], in [15] and in test [16] was under 40% each time.

Take `O=C(Nc1ccc(OC(F)(F)F)cc1)c1sccc1NCc1cccc(N=C=S)c1`: the inhibition in [1], in test [2], in [3], in test [4], in [5] and in test [6] was under 40% each time. Moreover, the inhibition in test [7], in test [8], in test [9], in test [10], in [11] and in [12] was under 40% in each case. Besides, the inhibition in test [13], in [14], in test [15] and in [16] was under 40% throughout.

As for `Nc1cnccc1CNc1ccsc1C(=O)Nc1ccc(OC(F)(F)F)cc1`, the inhibition in [1] turned out to be 91%; in test [3] it was 47%; in [4], 41%; in test [5] it was 88%; in test [7] it was 41%; in test [10], 57%. For the same compound, in test [13], the inhibition came out at 50%.

Consider `CC(=O)Nc1ccc(CNc2ccsc2C(=O)Nc2ccc(OC(F)(F)F)cc2)cc1`, for which the inhibition in [1], in [2], in test [3], in test [4], in test [5] and in test [6] was under 40% in each case. Moreover, the inhibition in [7], in [8], in test [9], in [10], in test [11] and in test [12] was under 40% in each case. Moreover, the inhibition in test [13], in test [14], in [15] and in [16] was under 40% in each case.

Regarding `O=C(Nc1ccc(OC(F)(F)F)cc1)c1sccc1NCc1ccc(N=C=S)cc1`, the inhibition in test [1], in test [2], in test [3], in test [4], in test [5] and in test [6] was under 40% each time. The inhibition in test [7], in [8], in [9], in [10], in test [11] and in test [12] was under 40% throughout. Moreover, the inhibition in [13], in test [14], in [15] and in [16] was under 40% throughout.

For the compound `Nc1cccc(CNc2ccsc2C(=O)Nc2ccc(OC(F)(F)F)cc2)c1`, the inhibition in test [1], in test [2], in test [3], in [4], in test [5] and in test [6] was under 40% each time. For the same compound, the inhibition in test [7], in test [8], in test [9], in test [10], in [11] and in test [12] was under 40% in each case. The inhibition in [13], in test [14], in test [15] and in test [16] was under 40% throughout.

`CC(=O)Nc1cc(CNc2ccsc2C(=O)Nc2ccc(OC(F)(F)F)cc2)ccn1`: the inhibition was determined as 102% in [1], 101% in test [5], 81% in test [10] and 101% in test [13].
